Source: patent US20110053770A1, “SUBSTITUTED AMINOTHIAZOLES AND THEIR USE AS FUNGICIDES” (BAYER CROPSCIENCE AG, priority 2009, published 2011)
Marks after values point to notes of the source that are not given here.

Experiment: logP by HPLC on reversed-phase columns (C 18), EEC directive 79/831 Annex V.A8
Type: physicochemical
Details: for log P (**) / log P (***): LC-MS; for log P (**) / log P (*): acidic range; for log P (**): pH 2.7, 0.1% aqueous formic acid and acetonitrile; for log P (***): neutral range, pH 7.8, 0.001 molar aqueous ammonium bicarbonate and acetonitrile; for log P (*): pH 2.3, 0.1% aqueous phosphoric acid and acetonitrile
Protocol: Calibration was carried out using unbranched alkan-2-ones (having from 3 to 16 carbon atoms) with known logP values (the logP values were determined by the retention times using linear interpolation between two successive alkanones).

log P (**) | log P (***) | log P (*) | Compound
3.88**; 3.88***; 3.88* | 3.88**; 3.88***; 3.88* | 3.88**; 3.88***; 3.88* | CC(=O)N1CCCCC1=Nc1nc(-c2ccc(F)c(Cl)c2)cs1 [compound 41, 1-[(2E/Z)-2-{[4-(3-chloro-4-fluorophenyl)-1,3-thiazol-2-yl]imino}piperidin-1-yl]ethanone]
– | 2.13 | 0.29 | Cc1cccc(-c2csc(N=C3CCCCN3)n2)n1 [compound 62, 4-(6-methylpyridin-2-yl)-N-[(2E/Z)-piperidin-2-ylidene]-1,3-thiazole-2-amine]
1.94 | 3.72 | – | FC(F)(F)c1cccc(-c2csc(N=C3CCCCN3)n2)c1Cl [compound 8, 4-[2-chloro-3-(trifluoromethyl)phenyl]-N-[(2E/Z)-piperidin-2-yl-idene]-1,3-thiazole-2-amine]
– | 4.27 | 2.04 | Fc1ccc(Cc2ccccc2-c2csc(N=C3CCCCN3)n2)c(F)c1 [compound 88, 4-[2-(2,4-difluorobenzyl)phenyl]-N-[(2E/Z)-piperidin-2-ylidene]-1,3-thiazole-2-amine]
2.58 | 4.9 | 2.58 | FC(F)(F)c1cc(Oc2ccccc2-c2csc(N=C3CCCCN3)n2)ccc1Cl [compound 14, 4-{2-[4-chloro-3-(trifluoromethyl)phenoxy]phenyl}-N-[(2E/Z)-piperidin-2-ylidene]-1,3-thiazole-2-amine]
– | 3.59 | 2.03 | Fc1ccc(Oc2ccc(-c3csc(N=C4CCCN4)n3)cc2)c(F)c1 [compound 97, 4-[4-(2,4-difluorophenoxy)phenyl]-N-[(2E/Z)-pyrrolidin-2-ylidene]-1,3-thiazole-2-amine]

The next lines start with the compound.

Compound | log P (**) | log P (***) | log P (*)
Brc1cccc(Oc2ccccc2-c2csc(N=C3CCCCN3)n2)c1 [compound 87, 4-[2-(3-bromophenoxy)phenyl]-N-[(2E/Z)-piperidin-2-ylidene]-1,3-thiazole-2-amine] | – | 4.71 | 2.19
C=CCOc1ccccc1-c1csc(N=C2CCCCN2)n1 [compound 22, N-[(2E/Z)-piperidin-2-ylidene]-4-[2-(prop-2-en-1-yloxy)phenyl]-1,3-thiazole-2-amine] | 1.83 | 3.45 | 1.83
CC(=O)N1CCCCC1=Nc1nc(-c2cccc(Cl)c2Cl)cs1 [compound 36, 1-[(2E/Z)-2-{[4-(2,3-dichlorophenyl)-1,3-thiazol-2-yl]imino}piperidin-1-yl]ethanone] | 4.03 | 4.02 | 4.03
Clc1cccc(Cl)c1-c1csc(N=C2CCCCN2)n1 [compound 51, 4-(2,6-dichlorophenyl)-N-[(2E/Z)-piperidin-2-ylidene]-1,3-thiazole-2-amine] | 1.42** | – | –
Clc1ccc(-c2csc(N=C3CCCN3)n2)cc1 [compound 96, 4-(4-chlorophenyl)-N-[(2E/Z)-pyrrolidin-2-ylidene]-1,3-thiazole-2-amine] | 1.57** | – | –
Clc1ccc(-c2csc(N=C3CCCCN3)n2)cc1 [compound 2, 4-(4-chlorophenyl)-N-[(2E/Z)-piperidin-2-ylidene]-1,3-thiazole-2-amine] | 1.7** | – | –
Clc1ccc(Cc2ccccc2-c2csc(N=C3CCCCN3)n2)cc1Cl [compound 92, 4-[2-(3,4-dichloro-benzyl)phenyl]-N-[(2E/Z)-piperidin-2-ylidene]-1,3-thiazole-2-amine] | – | 5.07 | 2.36
FC(F)(F)c1ccccc1-c1csc(N=C2CCCCN2)n1 [compound 21, N-[(2E/Z)-piperidin-2-ylidene]-4-[2-(trifluoromethyl)phenyl]-1,3-thiazole-2-amine] | 1.76 | 3.25 | 1.76
Fc1cccc(Oc2ccccc2-c2csc(N=C3CCCCN3)n2)c1 [compound 83, 4-[2-(3-fluorophenoxy)phenyl]-N-[(2E/Z)-piperidin-2-ylidene]-1,3-thiazole-2-amine] | – | – | 1.95*
